Data on 7 compounds can be found in patent US10093675B2, “6,8-disubstituted-9-(heterocyclyl)purines, compositions containing these derivatives and their use in cosmetic and medicinal applications” (USTAV EXPERIMENTALNI BOTANIKY AV CR, V.V.I., priority 2014, dated 2018).

Series [1] deals with erytroid leukemia cell line K-562. The series can be described thus: In vitro cytotoxic activity (Calcein AM), K-562. Type of series: cell-based, human. To be noted: read-out: Cell line tested/IC50 (μmol/L) K-562. The procedure, abridged: (§1)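 Calcein fluorescence, read 1 hour after adding Calcein AM at 1 μg/ml final, measured viability following 72 hours of compound treatment at 37° C. Compounds were tested as six 3-fold dilutions from usually 100 μM in triplicate. GI50 was the concentration reducing conversion by 50%.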

In series [2] the test system is Human diploid fibroblast BJ. Description: In vitro cytotoxic activity (MTT). Type of series: cell-based. The settings on record: 72 hours incubation; concentration causing 20% decrease in mitochondrial dehydrogenase activity.
For series [3], the system named is breast carcinoma cell line MCF-7. The series can be described thus: In vitro cytotoxic activity (Calcein AM), MCF-7. The series is classed as cell-based, human. The settings on record: read-out: Cell line tested/IC50 (μmol/L) MCF7. The procedure, abridged: as §1
For series [4], the system named is normal diploid fibroblasts BJ. The series can be described thus: In vitro cytotoxic activity (Calcein AM), BJ. The series is classed as cell-based, human. To be noted: 72 hours, read-out: Cell line tested/IC50 (μmol/L) BJ. The procedure, abridged: as §1
Series [5] has as its system cytokinin-dependent tobacco callus Nicotiana tabacum L. cv. Wisconsin 38. The series can be described thus: Plant cell division: growth of cytokinin-dependent tobacco callus. Type of series: cell-based. The settings on record: for Activity (%); (s.d.): relative activity at concentration with highest activity, 10^−6 M kinetin set at 100%; for Concentration with highest activity (mol/l): tobacco callus fresh weight increase after four weeks, tested 10^−8 M to 10^−4 M.

In series [6] the test system is osteosarcoma cell line HOS. The series can be described thus: In vitro cytotoxic activity (Calcein AM), HOS. The series is classed as cell-based, human. The settings on record: 72 hours, read-out: Cell line tested/IC50 (μmol/L) HOS. The procedure, abridged:
as §1

For series [7], the system named is Salmonella typhimurium histidien auxotrophs TA98 and TA100. The series can be described thus: Ames test. Type of series: cell-based. To be noted: 2.5 to 5000 μg/plate; presence and absence of Aroclor-induced rat liver S9. An outline of the steps:
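Strains TA98 and TA100 exposed to compounds in DMSO at 2.5, 5.0, 15, 50, 500, 1500 and 5000 μg/plate following standard Ames/Maron protocols.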
On the technique in general: The Ames test uses bacterial strains that need an amino acid and regain growth without it when mutated back.

In the next series the test system is melanoma cell line G-361. The series can be described thus: In vitro cytotoxic activity (Calcein AM), G-361. The series is classed as cell-based, human. The settings on record: read-out: Cell line tested/IC50 (μmol/L) G-361. An outline of the steps:
as §1

The subject of series [8] is T-lymphoblastic leukemia cell line CEM. Description: In vitro cytotoxic activity (Calcein AM), CEM. Type of series: cell-based, human. The settings on record: 72 hours, read-out: Cell line tested/IC50 (μmol/L) CEM. The procedure, abridged: as §1

Like-named read-outs stand apart in the source and are kept apart here.

As to `C/C(=C\CNc1ncnc2c1nc(Br)n2C1CCCCO1)CO` (stereo not shown) [Compound 24, (E)-8-Bromo-6-(4-hydroxy-3-methylbut-2-en-1-ylamino)-9-(tetrahydropyran-2-yl)-9H-purine], the IC50 in series [1] (Homo sapiens, K562, 72 hours) was > 50 µmol/L; in series [3] (Homo sapiens, MCF7, 72 hours), > 50 µmol/L; in series [4] (Homo sapiens, Fibroblast), > 50 µmol/L; in series [6] (Homo sapiens), > 50 µmol/L; in the series with melanoma cell line G-361 (Homo sapiens, G-361, 72 hours), > 50 µmol/L; in series [8] (Homo sapiens), > 50 µmol/L. Moreover, the “GI20” value in [2] is >100 µM. The “Activity (%); (s.d.)” value in series [5] is 128 (±8) %. Moreover, the mutagenic response result in series [7] is on record as “no positive mutagenic responses”.

`Fc1cccc(CNc2ncnc3c2nc(Br)n3C2CCCCO2)c1` (stereo not shown) [Compound 26]: the IC50 (in series [1] (72 hours); in series [3] (72 hours); in series [4]; in series [6]; in the series with melanoma cell line G-361 (72 hours); in [8]) was > 50 µmol/L throughout. For the same compound, the “GI20” value in series [2] is >100 µM. Besides, the “Activity (%); (s.d.)” value in series [5] is 117 (±4) %. In series [5], the “Concentration with highest activity (mol/l)” value (shortened to “Concentration”) was 10^−6-10^−5 mol/l. Further, in series [7], the mutagenic response result is “no positive mutagenic responses”.

For `Fc1ccc(CNc2ncnc3c2nc(Br)n3C2CCCCO2)cc1F` (stereo not shown) [Compound 27], the IC50 (in series [1] (72 hours); in series [3] (72 hours); in [4]; in series [6]; in the series on melanoma cell line G-361 (72 hours); in [8]) was > 50 µmol/L each time. In series [2], the “GI20” value was >100 µM. Further, the “Activity (%); (s.d.)” value in series [5] was 115 (±4) %. The “Concentration” value in series [5] is listed as 10^−6-10^−5 mol/l. Also, the mutagenic response entry in series [7] is “no positive mutagenic responses”.

With `C/C(=C\CNc1ncnc2c1nc(Cl)n2C1CCCO1)CO` (stereo not shown) [Compound 64], the IC50 (in series [1] (72 hours); in series [3] (72 hours); in [4]; in [6]; in the series with melanoma cell line G-361 (72 hours); in [8]) was > 50 µmol/L each time. Also, in series [2], the “GI20” value is >100 µM. In addition, the “Activity (%); (s.d.)” value in series [5] is given as 130 (±10) %. For the same compound, in series [5], the “Concentration” value is on record as 10^−6-10^−4 mol/l. Moreover, the mutagenic response entry in series [7] is “no positive mutagenic responses”.

In the case of `COc1cccc(CNc2ncnc3c2nc(Cl)n3C2CCCO2)c1` (stereo not shown) [Compound 69], the IC50 (in [1] (72 hours); in series [3] (72 hours); in series [4]; in series [6]; in the series with melanoma cell line G-361 (72 hours); in series [8]) was > 50 µmol/L throughout. In series [2], the “GI20” value is >100 µM. Also, the “Activity (%); (s.d.)” value in [5] is given as 111 (±5) %. In series [5], the “Concentration” value was 10^−6-10^−4 mol/l. Besides, in series [7], the mutagenic response result was “no positive mutagenic responses”.

Take `COc1nc2c(NCc3ccco3)ncnc2n1C1CCCCO1` (stereo not shown) [Compound 124, 6-Furfurylamino-8-methoxy-9-(tetrahydropyran-2-yl)-9H-purine]: the IC50 in [1] (Homo sapiens, K562, 72 hours) was > 50 µmol/L; in [3] (Homo sapiens, MCF7, 72 hours), > 50 µmol/L; in series [4] (Homo sapiens, Fibroblast), > 50 µmol/L; in series [6] (Homo sapiens), > 50 µmol/L; with melanoma cell line G-361 (Homo sapiens, G-361, 72 hours), > 50 µmol/L; in series [8] (Homo sapiens) it was > 50 µmol/L. Besides, in series [2], the “GI20” value is >100 µM. Further, in [5], the “Activity (%); (s.d.)” value was 105 (±2) %. Also, in [7], the mutagenic response result is given as “no positive mutagenic responses”.

Regarding `CSc1nc2c(NCc3ccco3)ncnc2n1C1CCCCO1` (stereo not shown) [Compound 145, 6-Furfurylamino-8-methylsulfanyl-9-(tetrahydropyran-2-yl)-9H-purine], the IC50 in [1] (Homo sapiens, K562, 72 hours) is > 50 µmol/L; in series [3] (Homo sapiens, MCF7, 72 hours), > 50 µmol/L; in series [4] (Homo sapiens, Fibroblast), > 50 µmol/L; in series [6] (Homo sapiens), > 50 µmol/L; in the series on melanoma cell line G-361 (Homo sapiens, G-361, 72 hours), > 50 µmol/L; in series [8] (Homo sapiens), > 50 µmol/L. In addition, the “GI20” value in [2] was >100 µM. Also, the “Activity (%); (s.d.)” value in series [5] was 103 (±5) %. Also, in [7], the mutagenic response entry was “no positive mutagenic responses”.
